# Values quoted from earlier work as cited in patent US20260015582A1, “METHODS OF T CELL DIFFERENTIATION AND COMPOSITIONS THEREOF” (THE CHILDREN'S MEDICAL CENTER CORPORATION, priority 2022, published 2026).
# What was measured:
# JMJD2E = molecular target: T1, JMJD2E (Homo sapiens, UniProt B2RXH2); conditions: ECSD enzymatic assays
# T1 sequence (B2RXH2 1-506): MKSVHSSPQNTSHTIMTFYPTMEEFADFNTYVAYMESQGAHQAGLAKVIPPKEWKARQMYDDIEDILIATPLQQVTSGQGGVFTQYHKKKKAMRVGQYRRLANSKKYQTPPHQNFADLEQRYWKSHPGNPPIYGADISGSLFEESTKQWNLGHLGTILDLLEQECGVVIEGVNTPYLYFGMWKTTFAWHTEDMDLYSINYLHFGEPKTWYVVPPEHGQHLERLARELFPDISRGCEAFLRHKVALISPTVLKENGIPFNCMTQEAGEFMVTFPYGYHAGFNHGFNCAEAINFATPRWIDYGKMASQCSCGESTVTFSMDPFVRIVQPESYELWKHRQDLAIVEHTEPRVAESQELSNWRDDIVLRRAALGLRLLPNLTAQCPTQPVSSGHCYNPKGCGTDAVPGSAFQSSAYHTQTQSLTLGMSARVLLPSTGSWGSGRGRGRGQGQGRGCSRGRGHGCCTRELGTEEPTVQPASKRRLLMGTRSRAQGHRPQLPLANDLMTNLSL
# DIM5 = molecular target: T2, DIM5 (Neurospora crassa, UniProt Q8X225)
# T2 sequence (Q8X225 1-331): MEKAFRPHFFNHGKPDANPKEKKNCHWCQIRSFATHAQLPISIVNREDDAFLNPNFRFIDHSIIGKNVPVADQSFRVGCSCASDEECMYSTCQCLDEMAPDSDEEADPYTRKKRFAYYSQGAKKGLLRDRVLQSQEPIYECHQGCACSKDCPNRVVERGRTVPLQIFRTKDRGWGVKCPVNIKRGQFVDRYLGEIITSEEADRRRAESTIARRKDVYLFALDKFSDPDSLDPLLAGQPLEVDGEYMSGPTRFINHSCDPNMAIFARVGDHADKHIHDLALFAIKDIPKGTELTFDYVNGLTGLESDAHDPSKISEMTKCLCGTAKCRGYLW
# HMT SU(VAR)3-9 = HMT SU(VAR)3-9 (Drosophila melanogaster, UniProt P45975)
# Lys4-specific SET7/9 = molecular target: T3, Lys4-specific SET7/9 (Homo sapiens, UniProt Q8WTS6)
# T3 sequence (Q8WTS6 1-366): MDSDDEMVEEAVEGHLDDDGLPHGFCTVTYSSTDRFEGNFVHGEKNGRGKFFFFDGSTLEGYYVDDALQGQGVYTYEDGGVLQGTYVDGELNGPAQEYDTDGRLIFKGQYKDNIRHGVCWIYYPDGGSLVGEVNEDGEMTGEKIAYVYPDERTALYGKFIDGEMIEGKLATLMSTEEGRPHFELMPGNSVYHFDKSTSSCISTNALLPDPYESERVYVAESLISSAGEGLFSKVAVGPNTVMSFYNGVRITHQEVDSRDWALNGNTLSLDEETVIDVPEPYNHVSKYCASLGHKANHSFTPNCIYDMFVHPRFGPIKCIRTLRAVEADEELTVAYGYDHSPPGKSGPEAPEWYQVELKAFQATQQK
# G9a/GLP = conditions: SAM-competitive manner
# [1] = molecular target: T4, class III isoenzyme SIRT1 (Homo sapiens, UniProt Q96EB6)
# T4 sequence (Q96EB6 1-747): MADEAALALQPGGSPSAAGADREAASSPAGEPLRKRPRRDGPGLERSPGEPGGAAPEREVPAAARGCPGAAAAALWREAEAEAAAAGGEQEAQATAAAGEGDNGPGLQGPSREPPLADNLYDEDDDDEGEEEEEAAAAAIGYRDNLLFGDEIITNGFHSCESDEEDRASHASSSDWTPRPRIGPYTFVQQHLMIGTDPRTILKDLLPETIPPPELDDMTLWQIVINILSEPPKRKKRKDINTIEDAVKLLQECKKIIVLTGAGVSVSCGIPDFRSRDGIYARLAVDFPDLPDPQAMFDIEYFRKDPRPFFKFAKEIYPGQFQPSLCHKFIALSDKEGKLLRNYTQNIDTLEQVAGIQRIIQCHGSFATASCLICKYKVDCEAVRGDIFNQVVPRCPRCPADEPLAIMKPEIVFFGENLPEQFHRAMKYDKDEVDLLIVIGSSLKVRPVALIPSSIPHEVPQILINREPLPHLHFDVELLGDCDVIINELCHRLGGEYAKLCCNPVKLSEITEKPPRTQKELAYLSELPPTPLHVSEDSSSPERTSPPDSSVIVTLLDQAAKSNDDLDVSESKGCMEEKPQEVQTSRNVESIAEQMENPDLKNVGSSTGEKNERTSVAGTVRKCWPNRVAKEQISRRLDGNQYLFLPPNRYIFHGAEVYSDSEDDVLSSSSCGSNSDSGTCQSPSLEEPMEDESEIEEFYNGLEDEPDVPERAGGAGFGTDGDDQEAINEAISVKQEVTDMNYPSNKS
# HMT SU(VAR)3-9, sequence (P45975 with tags, fused parts or gaps): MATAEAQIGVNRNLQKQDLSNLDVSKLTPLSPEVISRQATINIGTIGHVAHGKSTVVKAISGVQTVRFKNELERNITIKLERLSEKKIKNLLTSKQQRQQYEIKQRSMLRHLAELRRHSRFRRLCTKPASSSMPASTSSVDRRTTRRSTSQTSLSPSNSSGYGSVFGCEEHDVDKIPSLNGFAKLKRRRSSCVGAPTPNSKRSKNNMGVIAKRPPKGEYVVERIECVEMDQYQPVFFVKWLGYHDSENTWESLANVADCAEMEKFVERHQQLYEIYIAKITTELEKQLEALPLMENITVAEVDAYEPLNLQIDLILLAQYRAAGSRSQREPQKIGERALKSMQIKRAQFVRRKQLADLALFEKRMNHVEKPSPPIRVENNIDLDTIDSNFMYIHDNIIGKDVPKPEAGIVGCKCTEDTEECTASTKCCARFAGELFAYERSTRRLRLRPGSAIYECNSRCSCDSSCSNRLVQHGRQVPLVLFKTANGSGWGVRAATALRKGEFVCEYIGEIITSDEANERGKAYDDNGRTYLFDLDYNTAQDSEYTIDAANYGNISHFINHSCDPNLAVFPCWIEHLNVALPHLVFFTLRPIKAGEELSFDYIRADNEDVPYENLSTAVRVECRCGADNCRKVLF
smiles,measurement,setting,value
COc1cc2c(NC3CCN(C)CC3)nc(N3CCCN(C)CC3)nc2cc1OCCOCCN(C)C [UNC0321],selectivity over JMJD2E,JMJD2E,> 1000 fold
same,IC50,JMJD2E; inactive,> 40 µM
CN1C(=O)C23CC4([C@]56C[C@@]78SS[C@@](CO)(C(=O)N7[C@H]5Nc5ccccc56)N(C)C8=O)c5ccccc5NC4N2C(=O)[C@]1(CO)SS3 (stereo partly shown) [Chaetocin],IC50,DIM5,3 µM
same,IC50,Lys20-specific PRSET7,> 90 µM
same,IC50,Lys27-specific EZH2,> 90 µM
same,IC50,HMT SU(VAR)3-9,0.8 µM
same,IC50,Lys4-specific SET7/9,> 90 µM
same,IC50,G9a,2.5 µM
COc1ccc(C(=O)Oc2ccc(CCn3c(NC(=O)c4ccc(C(F)(F)F)cc4)nc4cc(C(=O)O)ccc43)cc2)cc1 [BIX-01338],G9a/GLP effective conc.,G9a/GLP,G9a/GLP effective conc. = 15 μM
"CCCCc1nc2cc(/C=C/C(=O)NO)ccc2n1CCN(CC)CC [SB939, Pracinostat]",activity against the class III isoenzyme SIRT1,[1],no activity
